Assay results as given in patent publication US11666558B2, “Methods of treating intraocular pressure with activators of Tie-2” (EyePoint Pharmaceuticals, Inc., priority 2015, dated 2023).
Like-named read-outs stand apart in the source and are kept apart here.

Assay: Ocular tissue concentrations (aqueous humor, vitreous humor, iris, retina, choroid, cornea) after topical ocular, subcutaneous and intravitreal administration
Type: in vivo, New Zealand White rabbits
Conditions: New Zealand White, rabbit; for concentration at 6 h / concentration at 24 h / concentration at 48 h / concentration at 72 h: other: intravitreal, 2.5 mg/eye
Method: To measure the concentration of Compound 1 in plasma and ocular tissues following topical ocular, subcutaneous, and intravitreal administration, New Zealand White rabbits were administered Compound 1, and plasma and ocular samples were collected at pre-determined time points. Compound 1 formulations were prepared fresh on each day of dosing.
Ocular tissue samples from both eyes of each animal were collected and weights were recorded. Plasma and ocular tissue sample concentrations of Compound 1 were determined by LC-MS/MS.
New Zealand White rabbits weighing 2.5 to 3.5 kg were used on this study. Rabbits were housed one per cage. Animals were not fasted and only healthy animals with no ocular illness were used. Two rabbits per group were sacrificed at each of four ocular tissue sampling time points for a total of eight rabbits per group.
Animals were anesthetized for ocular (topical) and intravitreal dosing following the 12IA7 IACUC protocol. Each rabbit received a bolus dose of test formulation either via topical ocular administration 3 times daily on Days 1 and 2 (at 0, 6, and 12 hours), and once on Day 3 (at 0 hours) into both eyes; via intravitreal administration into both eyes once on Day 1 (at 0 hours); or via subcutaneous administration 2 times daily on Days 1 and 2 (at 0 and 8 hours) and once daily on Day 3 (at 0 hours). Doses were given within an approximately 1 hour window each day where applicable.
On Day 1, for intravitreal administration, or on Day 3, for topical ocular and subcutaneous administration, at the appropriate ocular tissue collection time points, animals were euthanized and both eyes were enucleated immediately. Following enucleation, each eye was rinsed with phosphate-buffered saline. Ocular tissue samples from both eyes of each animal were collected at predetermined time points and weights were recorded. All the samples were frozen immediately on dry ice, and stored at −60° C. to −80° C. pending bioanalysis.
An LC-MS/MS method was developed for the determination of Compound 1 in rabbit aqueous tissues (plasma, aqueous and vitreous humor) and solid ocular tissue samples. A pre-study standard curve was analyzed to determine the specificity, range, and lower limit of quantitation of the method. Plasma and tissue homogenate study samples were extracted and analyzed. All the samples were treated identically to the standards.
One eight-point standard curve was used in each analytical batch. To be accepted, each batch must have had at least five of eight standards with accuracy within ±20% of nominal, except at the lower limit of quantification (LLOQ), where ±25% was acceptable.
Concentration versus time data is plotted in FIGS. 3-16. All data are expressed as ng/g of the free drug. Samples that were below the limit of quantitation (0.2 ng/mL) were not used in the calculation of averages.

[1] = iris homogenate, Iris homogenate, OD, sodium salt, intravitreal 2.5 mg/eye, Group 4, read-out: Iris Conc. (ng/mL) OD
[2] = iris homogenate, Iris homogenate, OS, sodium salt, intravitreal 2.5 mg/eye, Group 4, read-out: Iris Conc. (ng/mL) OS
[3] = iris homogenate, Iris homogenate, left eye, intravitreal 2.5 mg/eye (group 5), individual animals, read-out: Conc. (ng/mL) OS
[4] = iris homogenate, Iris homogenate, right eye, intravitreal 2.5 mg/eye (group 5), individual animals, read-out: Conc. (ng/mL) OD
[5] = iris homogenate, subcutaneous, 5 mg/kg/dose, Iris homogenate, OD, sodium salt, subcutaneous 5 mg/kg/dose, Group 2, read-out: Iris Conc. (ng/mL) OD
[6] = iris homogenate, subcutaneous, 5 mg/kg/dose, Iris homogenate, OS, free acid, subcutaneous 5 mg/kg/dose, Group 3, read-out: Iris Conc. (ng/mL) OS
[7] = iris homogenate, subcutaneous, 5 mg/kg/dose, Iris homogenate, OS, sodium salt, subcutaneous 5 mg/kg/dose, Group 2, read-out: Iris Conc. (ng/mL) OS
[8] = iris homogenate, subcutaneous, 5 mg/kg/dose, TABLE 16: Iris homogenate, OS, free acid, subcutaneous 5 mg/kg/dose, Group 3, read-out: Iris Conc. (ng/mL) OS
[9] = iris, Iris, OD, sodium salt, intravitreal 2.5 mg/eye, Group 4, read-out: Iris Conc. (ng/g) OD
[10] = iris, Iris, OS, sodium salt, intravitreal 2.5 mg/eye, Group 4, read-out: Iris Conc. (ng/g) OS
[11] = iris, Iris, average, intravitreal 2.5 mg/eye (group 5), read-out: Avg.
[12] = iris, Iris, left eye, intravitreal 2.5 mg/eye (group 5), individual animals, read-out: Conc. (ng/g) OS
[13] = iris, Iris, right eye, intravitreal 2.5 mg/eye (group 5), individual animals, read-out: Conc. (ng/g) OD
[14] = iris, Iris, sodium salt, intravitreal 2.5 mg/eye, Group 4, read-out: Iris Avg.
[15] = iris, subcutaneous, 5 mg/kg/dose, Iris, OD, sodium salt, subcutaneous 5 mg/kg/dose, Group 2, read-out: Iris Conc. (ng/g) OD
[16] = iris, subcutaneous, 5 mg/kg/dose, Iris, OS, free acid, subcutaneous 5 mg/kg/dose, Group 3, read-out: Iris Conc. (ng/g) OS
[17] = iris, subcutaneous, 5 mg/kg/dose, Iris, free acid, subcutaneous 5 mg/kg/dose, Group 3, read-out: Iris Average
[18] = iris, subcutaneous, 5 mg/kg/dose, Iris, sodium salt, subcutaneous 5 mg/kg/dose, Group 2, read-out: Iris Average
[19] = iris, subcutaneous, 5 mg/kg/dose, Iris, OS, sodium salt, subcutaneous 5 mg/kg/dose, Group 2, read-out: Iris Conc. (ng/g) OS
[20] = iris, subcutaneous, 5 mg/kg/dose, TABLE 16: Iris, OS, free acid, subcutaneous 5 mg/kg/dose, Group 3, read-out: Iris Conc. (ng/g) OS
[21] = iris, subcutaneous, 5 mg/kg/dose, TABLE 16: Iris, free acid, subcutaneous 5 mg/kg/dose, Group 3, read-out: Iris Average

COC(=O)N[C@@H](Cc1ccccc1)C(=O)N[C@@H](Cc1ccc(NS(=O)(=O)O)cc1)c1csc(-c2cccs2)n1 [Compound 1]
concentration at 4 h (cornea, subcutaneous, 5 mg/kg/dose, TABLE 16: Cornea, OD, free acid, subcutaneous 5 mg/kg/dose, Group 3, read-out: Cornea Conc. (ng/g) OD): 10.4 ng/g
concentration at 4 h (cornea, subcutaneous, 5 mg/kg/dose, TABLE 16: Cornea, free acid, subcutaneous 5 mg/kg/dose, Group 3, read-out: Cornea Average): 15.8 ng/g
concentration at 6 h [1]: 35500 ng/mL
concentration at 6 h [2]: 34000 ng/mL
concentration at 6 h [3]: 13800 ng/mL
concentration at 6 h [4]: 18500 ng/mL
concentration at 24 h [1]: 6890 ng/mL
concentration at 24 h [3]: 14100 ng/mL
concentration at 24 h [4]: 7670 ng/mL
concentration at 48 h [1]: 2380 ng/mL
concentration at 48 h [2]: 1960 ng/mL
concentration at 48 h [3]: 1950 ng/mL
concentration at 48 h [4]: 1010 ng/mL
concentration at 72 h [1]: 169 ng/mL
concentration at 72 h [3]: 1800 ng/mL
concentration at 72 h [4]: 279 ng/mL
concentration at 0.5 h [5]: 27.7 ng/mL
concentration at 0.5 h [6]: 4.27 ng/mL
concentration at 1 h [5]: 11.4 ng/mL
concentration at 1 h [6]: 4.33 ng/mL
concentration at 1 h [7]: 8.87 ng/mL
concentration at 2 h (iris homogenate, subcutaneous, 5 mg/kg/dose, Iris homogenate, 2 hr, OD, free acid, subcutaneous 5 mg/kg/dose, Group 3, read-out: Iris Conc. (ng/mL) OD): 2.77 ng/mL
concentration at 2 h (iris homogenate, subcutaneous, 5 mg/kg/dose, Iris homogenate, 2 hr, OS, free acid, subcutaneous 5 mg/kg/dose, Group 3, read-out: Iris Conc. (ng/mL) OS): 2.68 ng/mL
concentration at 4 h (iris homogenate, subcutaneous, 5 mg/kg/dose, Iris homogenate, OD, free acid, subcutaneous 5 mg/kg/dose, Group 3, read-out: Iris Conc. (ng/mL) OD): 2.41 ng/mL
concentration at 4 hr [5]: 2.12 ng/mL
concentration at 4 h [6]: 1.54 ng/mL
concentration at 4 hr [7]: 3.1 ng/mL
concentration at 0.5 h [8]: 4.27 ng/mL
concentration at 1 h [8]: 4.33 ng/mL
concentration at 2 h (iris homogenate, subcutaneous, 5 mg/kg/dose, TABLE 16: Iris homogenate, 2 hr, OD, free acid, subcutaneous 5 mg/kg/dose, Group 3, read-out: Iris Conc. (ng/mL) OD): 2.77 ng/mL
concentration at 2 h (iris homogenate, subcutaneous, 5 mg/kg/dose, TABLE 16: Iris homogenate, 2 hr, OS, free acid, subcutaneous 5 mg/kg/dose, Group 3, read-out: Iris Conc. (ng/mL) OS): 2.68 ng/mL
concentration at 4 h (iris homogenate, subcutaneous, 5 mg/kg/dose, TABLE 16: Iris homogenate, OD, free acid, subcutaneous 5 mg/kg/dose, Group 3, read-out: Iris Conc. (ng/mL) OD): 2.41 ng/mL
concentration at 4 h [8]: 1.54 ng/mL
concentration at 6 h [9]: 390000 ng/g
concentration at 6 h [10]: 374000 ng/g
concentration at 6 h [11]: 211000 ng/g
concentration at 6 h [12]: 152000 ng/g
concentration at 6 h [13]: 204000 ng/g
concentration at 6 h [14]: 352000 ng/g
concentration at 24 h [9]: 75800 ng/g
concentration at 24 h [11]: 113000 ng/g
concentration at 24 h [12]: 155000 ng/g
concentration at 24 h [13]: 84400 ng/g
concentration at 24 h [14]: 141000 ng/g
concentration at 48 h [9]: 26200 ng/g
concentration at 48 h [10]: 21600 ng/g
concentration at 48 h [11]: 16800 ng/g
concentration at 48 h [12]: 21400 ng/g
concentration at 48 h [13]: 11100 ng/g
concentration at 48 h [14]: 24600 ng/g
concentration at 72 h [9]: 1860 ng/g
concentration at 72 h [11]: 10300 ng/g
concentration at 72 h [12]: 19800 ng/g
concentration at 72 h [13]: 3070 ng/g
concentration at 72 h [14]: 1550 ng/g
concentration at 0.5 h [15]: 305 ng/g
concentration at 0.5 h [16]: 47 ng/g
concentration at 0.5 h [17]: 50.3 ng/g
concentration at 0.5 h [18]: 459 ng/g
concentration at 1 h [15]: 125 ng/g
concentration at 1 h [16]: 47.6 ng/g
concentration at 1 h [19]: 97.6 ng/g
concentration at 1 h [17]: 58 ng/g
concentration at 1 h [18]: 94.7 ng/g
concentration at 2 h (iris, subcutaneous, 5 mg/kg/dose, Iris, 2 hr, OD, free acid, subcutaneous 5 mg/kg/dose, Group 3, read-out: Iris Conc. (ng/g) OD): 30.5 ng/g
concentration at 2 h (iris, subcutaneous, 5 mg/kg/dose, Iris, 2 hr, OS, free acid, subcutaneous 5 mg/kg/dose, Group 3, read-out: Iris Conc. (ng/g) OS): 29.5 ng/g
concentration at 2 h (iris, subcutaneous, 5 mg/kg/dose, Iris, 2 hr, free acid, subcutaneous 5 mg/kg/dose, Group 3, read-out: Iris Average): 27.6 ng/g
concentration at 2 hr (iris, subcutaneous, 5 mg/kg/dose, Iris, 2 hr, sodium salt, subcutaneous 5 mg/kg/dose, Group 2, read-out: Iris Average): 29.7 ng/g
concentration at 4 h (iris, subcutaneous, 5 mg/kg/dose, Iris, OD, free acid, subcutaneous 5 mg/kg/dose, Group 3, read-out: Iris Conc. (ng/g) OD): 26.5 ng/g
concentration at 4 hr [15]: 33.8 ng/g
concentration at 4 h [16]: 16.9 ng/g
concentration at 4 hr [19]: 34.1 ng/g
concentration at 4 h [17]: 17.5 ng/g
concentration at 4 hr [18]: 30.4 ng/g
concentration at 0.5 h [20]: 47 ng/g
concentration at 0.5 h [21]: 50.3 ng/g
concentration at 1 h [20]: 47.6 ng/g
concentration at 1 h [21]: 58 ng/g
